According to US20250154134A1, “COMPOUND AS FAK INHIBITOR AND USE THEREOF” (WIGEN BIOMEDICINE TECHNOLOGY (SHANGHAI) CO., LTD., priority 2022, published 2025):

Key:
PC3 cells [1] = test: PC3 cell proliferation, 3D activity assay (3D culture, 14 days); format: cell-based, human; conditions: Homo sapiens, PC-3, 336 h, read-out: 3D inhibitory activity against PC3 cells IC50
FAK recombinant protein = FAK recombinant protein (Homo sapiens (Human), UniProt Q05397); test: Inhibitory activity against FAK enzyme (HTRF, TK substrate); format: biochemical
FAK recombinant protein, sequence (Q05397 whole entry): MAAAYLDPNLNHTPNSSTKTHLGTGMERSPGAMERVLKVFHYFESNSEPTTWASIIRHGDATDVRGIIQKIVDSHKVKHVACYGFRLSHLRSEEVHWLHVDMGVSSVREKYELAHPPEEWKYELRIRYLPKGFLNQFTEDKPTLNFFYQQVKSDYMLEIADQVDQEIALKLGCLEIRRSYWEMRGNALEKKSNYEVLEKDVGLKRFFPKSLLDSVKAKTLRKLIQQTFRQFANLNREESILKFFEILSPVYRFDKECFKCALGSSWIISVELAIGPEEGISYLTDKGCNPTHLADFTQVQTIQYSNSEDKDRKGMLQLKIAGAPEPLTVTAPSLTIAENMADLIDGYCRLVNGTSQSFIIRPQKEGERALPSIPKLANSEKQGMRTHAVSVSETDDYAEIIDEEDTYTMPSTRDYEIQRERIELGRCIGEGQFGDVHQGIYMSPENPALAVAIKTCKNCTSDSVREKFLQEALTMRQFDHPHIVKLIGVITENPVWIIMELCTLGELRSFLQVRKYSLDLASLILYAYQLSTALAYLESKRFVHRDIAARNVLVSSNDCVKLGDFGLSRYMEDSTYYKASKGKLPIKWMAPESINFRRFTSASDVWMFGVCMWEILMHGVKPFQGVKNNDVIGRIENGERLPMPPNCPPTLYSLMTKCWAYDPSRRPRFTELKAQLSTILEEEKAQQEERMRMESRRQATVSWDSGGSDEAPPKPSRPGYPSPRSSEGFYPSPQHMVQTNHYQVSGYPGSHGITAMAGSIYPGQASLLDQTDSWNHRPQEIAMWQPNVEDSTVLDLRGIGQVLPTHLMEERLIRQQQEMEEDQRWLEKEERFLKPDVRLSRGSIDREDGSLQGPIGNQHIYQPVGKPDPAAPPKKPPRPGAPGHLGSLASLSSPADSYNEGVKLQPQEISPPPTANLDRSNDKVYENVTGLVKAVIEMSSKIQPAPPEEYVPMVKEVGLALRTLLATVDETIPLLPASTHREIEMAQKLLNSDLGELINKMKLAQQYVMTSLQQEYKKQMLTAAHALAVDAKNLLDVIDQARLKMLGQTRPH
Description: A compound serially diluted with DMSO was mixed with a FAK recombinant protein. After the mixture was left to stand at room temperature for 10 min, a biotin-labeled TK substrate (TK) and ATP were added. […] The inhibition percentage and IC50 of the compound were calculated compared to the DMSO control group.

PC3 cells [2] = test: PC3 cell proliferation, 2D activity assay (Cell Titer-Lumi, 72 h); format: cell-based, human; conditions: Homo sapiens, PC-3, read-out: 2D inhibitory activity against PC3 cells IC50

Compound | IC50 (PC3 cells [1]) | IC50 (FAK recombinant protein) | IC50 (PC3 cells [2])
COc1cc(C2CCN(C)CC2)c(F)cc1Nc1ncc(C(F)(F)F)c(Oc2cccc3c2C(=O)N(C)C32CC2)n1 [Compound 119, 4′-((2-((5-fluoro-2-methoxy-4-(1-methylpiperidin-4-yl)phenyl)amino)-5-(trifluoromethyl)pyrimidin-4-yl)oxy)-2′-methylspiro[cyclopropane-1,1′-isoindolin]-3′-one] | < 5 nM | < 20 nM | > 2000 nM
COc1cc(N2CCN(C)CC2)c(F)cc1Nc1ncc(C(F)(F)F)c(Oc2cccc3c2C(=O)N(C)C32CC2)n1 [Compound 122] | < 5 nM | < 20 nM | > 2000 nM
COCCN1CCN(c2cc(OC)c(Nc3ncc(C(F)(F)F)c(Oc4cccc5c4C(=O)N(C)C54CC4)n3)cc2F)CC1 [Compound 123] | < 5 nM | < 20 nM | > 2000 nM
COc1cc(N2CCN(CC(=O)N(C)C)CC2)c(F)cc1Nc1ncc(C(F)(F)F)c(Oc2cccc3c2C(=O)N(C)C32CC2)n1 [Compound 124] | < 5 nM | < 20 nM | > 2000 nM
COc1cc(N2CC3(CN(C)C3)C2)c(F)cc1Nc1ncc(C(F)(F)F)c(Oc2cccc3c2C(=O)N(C)C32CC2)n1 [Compound 125] | < 5 nM | < 20 nM | > 2000 nM
COc1cc(N2CCC3(CC2)CN(C)C3)c(F)cc1Nc1ncc(C(F)(F)F)c(Oc2cccc3c2C(=O)N(C)C32CC2)n1 [Compound 126] | < 5 nM | < 20 nM | > 2000 nM
COc1cc(N2CCC3(CCN(C)C3)C2)c(F)cc1Nc1ncc(C(F)(F)F)c(Oc2cccc3c2C(=O)N(C)C32CC2)n1 (stereo not drawn) [Compound 127] | < 5 nM | < 20 nM | > 2000 nM
COc1cc(N2CCC(N(C)C)CC2)c(F)cc1Nc1ncc(C(F)(F)F)c(Oc2cccc3c2C(=O)N(C)C32CC2)n1 [Compound 128] | < 5 nM | < 20 nM | > 2000 nM
COc1cc(N2CCN(C)CC2=O)c(F)cc1Nc1ncc(C(F)(F)F)c(Oc2cccc3c2C(=O)N(C)C32CC2)n1 [Compound 129] | 5 to 50 nM | < 20 nM | > 2000 nM
COc1cc(N2CCN(C)CC2)ccc1Nc1ncc(C2CC2)c(Oc2cccc3c2C(=O)N(C)C32CC2)n1 [Compound 130, 4′-((5-cyclopropyl-2-((2-methoxy-4-(4-methylpiperazin-1-yl)phenyl)amino)pyrimidin-4-yl)oxy)-2′-methylspiro[cyclopropane-1,1′-isoindolin]-3′-one] | 5 to 50 nM | < 20 nM | > 2000 nM
COc1cc(N2CC3(CCN(C)CC3)C2)ccc1Nc1ncc(C2CC2)c(Oc2cccc3c2C(=O)N(C)C32CC2)n1 [Compound 131, 4′-((5-cyclopropyl-2-((2-methoxy-4-(7-methyl-2,7-diazaspiro[3.5]nonan-2-yl)phenyl)amino)pyrimidin-4-yl)oxy)-2′-methylspiro[cyclopropane-1,1′-isoindolin]-3′-one] | 5 to 50 nM | < 20 nM | > 2000 nM
COc1cc(C(=O)NC2CC3(CCN(C)CC3)C2)c(F)cc1Nc1ncc(Cl)c(Oc2cccc3c2C(=O)N(C)C32CC2)n1 [Compound 132, 4-((5-chloro-4-((2′-methyl-3′-oxospiro[cyclopropane-1,1′-isoindolin]-4′-yl)oxy)pyrimidin-2-yl)amino)-2-fluoro-5-methoxy-N-(7-methyl-7-azaspiro[3.5]nonan-2-yl)benzamide] | 5 to 50 nM | < 20 nM | > 2000 nM
COc1cc(C(=O)NC2CC3(CCN(C)CC3)C2)ccc1Nc1ncc(Cl)c(Oc2cccc3c2C(=O)N(C)C32CC2)n1 [Compound 133, 4-((5-chloro-4-((2′-methyl-3′-oxospiro[cyclopropane-1,1′-isoindolin]-4′-yl)oxy)pyrimidin-2-yl)amino)-3-methoxy-N-(7-methyl-7-azaspiro[3.5]nonan-2-yl)benzamide] | 5 to 50 nM | < 20 nM | > 2000 nM
COc1cc(C2CCN(C)CC2)c(F)cc1Nc1ncc(Cl)c(Oc2cccc3c2C(=O)N(C)C32CC2)n1 [Compound 134, 4′-((5-chloro-2-((5-fluoro-2-methoxy-4-(1-methylpiperidin-4-yl)phenyl)amino)pyrimidin-4-yl)oxy)-2′-methylspiro[cyclopropane-1,1′-isoindolin]-3′-one] | < 5 nM | < 20 nM | > 2000 nM
COc1cc(C2CCN(C)CC2)ccc1Nc1ncc(Cl)c(Oc2cccc3c2C(=O)N(C)C32CC2)n1 [Compound 135, 4′-((5-chloro-2-((2-methoxy-4-(1-methylpiperidin-4-yl)phenyl)amino)pyrimidin-4-yl)oxy)-2′-methylspiro[cyclopropane-1,1′-isoindolin]-3′-one] | < 5 nM | < 20 nM | > 2000 nM
COc1cc(N2CCC(N3CCN(C)CC3)CC2)c(F)cc1Nc1ncc(Cl)c(Oc2cccc3c2C(=O)N(C)C32CC2)n1 [Compound 138] | < 5 nM | < 20 nM | > 2000 nM
COc1cc(N2CCN(C)CC2)c(F)cc1Nc1ncc(Cl)c(Oc2cccc3c2C(=O)N(C)C32CC2)n1 [Compound 140] | 5 to 50 nM | < 20 nM | > 2000 nM
COCCN1CCN(c2ccc(Nc3ncc(Cl)c(Oc4cccc5c4C(=O)N(C)C54CC4)n3)c(OC)c2)CC1 [Compound 142] | < 5 nM | < 20 nM | > 2000 nM
COCCN1CCN(c2cc(OC)c(Nc3ncc(Cl)c(Oc4cccc5c4C(=O)N(C)C54CC4)n3)cc2F)CC1 [Compound 143] | < 5 nM | < 20 nM | > 2000 nM

Compound | IC50 (PC3 cells [1]) | IC50 (FAK recombinant protein) | IC50 (PC3 cells [2])
COc1cc(N2CCN(CC(=O)N(C)C)CC2)ccc1Nc1ncc(Cl)c(Oc2cccc3c2C(=O)N(C)C32CC2)n1 [Compound 144] | < 5 nM | < 20 nM | > 2000 nM
COc1cc(N2CC3(CN(C)C3)C2)c(F)cc1Nc1ncc(Cl)c(Oc2cccc3c2C(=O)N(C)C32CC2)n1 [Compound 145] | 5 to 50 nM | < 20 nM | > 2000 nM
COc1cc(N2CC3(CN(C)C3)C2)ccc1Nc1ncc(Cl)c(Oc2cccc3c2C(=O)N(C)C32CC2)n1 [Compound 146] | 5 to 50 nM | < 20 nM | > 2000 nM
COc1cc(N2CCC3(CCN(C)CC3)CC2)ccc1Nc1ncc(Cl)c(Oc2cccc3c2C(=O)N(C)C32CC2)n1 [Compound 147] | < 5 nM | < 20 nM | > 2000 nM
COc1cc(N2CCC3(CC2)CN(C)C3)c(F)cc1Nc1ncc(Cl)c(Oc2cccc3c2C(=O)N(C)C32CC2)n1 [Compound 148] | < 5 nM | < 20 nM | > 2000 nM
COc1cc(N2CCC3(CC2)CN(C)C3)ccc1Nc1ncc(Cl)c(Oc2cccc3c2C(=O)N(C)C32CC2)n1 [Compound 149] | < 5 nM | < 20 nM | > 2000 nM
COc1cc(N2CCC3(CCN(C)C3)C2)c(F)cc1Nc1ncc(Cl)c(Oc2cccc3c2C(=O)N(C)C32CC2)n1 (stereo not drawn) [Compound 150] | < 5 nM | < 20 nM | > 2000 nM
COc1cc(N2CCC3(CCN(C)C3)C2)ccc1Nc1ncc(Cl)c(Oc2cccc3c2C(=O)N(C)C32CC2)n1 (stereo not drawn) [Compound 151] | < 5 nM | < 20 nM | > 2000 nM
COc1cc(N2CCC(N(C)C)CC2)c(F)cc1Nc1ncc(Cl)c(Oc2cccc3c2C(=O)N(C)C32CC2)n1 [Compound 152] | 5 to 50 nM | < 20 nM | > 2000 nM
COc1cc(CN2CCN(C)CC2)ccc1Nc1ncc(Cl)c(Oc2cccc3c2C(=O)N(C)C32CC2)n1 [Compound 153, 4′-((5-chloro-2-((2-methoxy-4-((4-methylpiperazin-1-yl)methyl)phenyl)amino)pyrimidin-4-yl)oxy)-2′-methylspiro[cyclopropane-1,1′-isoindolin]-3′-one] | < 5 nM | < 20 nM | > 2000 nM
COc1cc(CNC2CCN(C)CC2)ccc1Nc1ncc(Cl)c(Oc2cccc3c2C(=O)N(C)C32CC2)n1 [Compound 155] | 5 to 50 nM | < 20 nM | > 2000 nM
COc1cc(CN(C)C2CCN(C)CC2)c(F)cc1Nc1ncc(Cl)c(Oc2cccc3c2C(=O)N(C)C32CC2)n1 [Compound 156] | 5 to 50 nM | < 20 nM | > 2000 nM
COc1cc(N2CC(N3CCN(C)CC3)C2)ccc1Nc1ncc(Cl)c(Oc2cccc3c2C(=O)N(C)C32CC2)n1 [Compound 157, 4′-((5-chloro-2-((2-methoxy-4-(3-(4-methylpiperazin-1-yl)azetidin-1-yl)phenyl)amino)pyrimidin-4-yl)oxy)-2′-methylspiro[cyclopropane-1,1′-isoindolin]-3′-one] | < 5 nM | < 20 nM | > 2000 nM
COc1cc(N2CC(N3CC(N(C)C)C3)C2)ccc1Nc1ncc(Cl)c(Oc2cccc3c2C(=O)N(C)C32CC2)n1 [Compound 158] | 5 to 50 nM | < 20 nM | > 2000 nM
COc1cc(N2CC(N(C)C)C2)ccc1Nc1ncc(Cl)c(Oc2cccc3c2C(=O)N(C)C32CC2)n1 [Compound 159] | 5 to 50 nM | < 20 nM | > 2000 nM
COc1cc(N2CC(N3C4CCC3CN(C)C4)C2)ccc1Nc1ncc(Cl)c(Oc2cccc3c2C(=O)N(C)C32CC2)n1 [Compound 161] | < 5 nM | < 20 nM | > 2000 nM
COc1cc(N2CCC(N3CC4CC(C3)N4C)CC2)ccc1Nc1ncc(Cl)c(Oc2cccc3c2C(=O)N(C)C32CC2)n1 [Compound 163] | 5 to 50 nM | < 20 nM | > 2000 nM
COc1cc(N2C3CC2CN(C)C3)ccc1Nc1ncc(Cl)c(Oc2cccc3c2C(=O)N(C)C32CC2)n1 [Compound 164] | 5 to 50 nM | < 20 nM | > 2000 nM
COc1cc(N2CC3CC(C2)N3C)ccc1Nc1ncc(Cl)c(Oc2cccc3c2C(=O)N(C)C32CC2)n1 [Compound 165] | 5 to 50 nM | < 20 nM | > 2000 nM
